Tests used:
[1] = administered systemically (for example orally); cited from earlier work
[2] = tested on: cyclooxygenase; details: known lipoxygenase inhibitors; cited from earlier work
[3] = tested on: myocardial infarct; assay: Myocardial infarct after acute ligature of a coronary artery; type: in vivo; details: dog
Method: The actions of various pyrazoledione derivatives on the experimental myocardial infarct in the dog were investigated after acute ligature of a coronary artery. In pentobarbital-anaesthetised dogs, the proximal left anterior descending coronary artery (LAD) […] occluded for 6 hours. The artery was not reperfused. One hour prior to ligature, the test compounds in 1% tyclose suspension were administered intraduodenally as a bolus. The same procedure was adopted for the controls, except that no active compound was administered. The size of the infarct and the area of perfusion of the LAD were determined biochemically by means of a dual perfusion method using Evans Blue and triphenyltetrazolium chloride. […] This could be observed both with respect to the absolute infarct weight and the infarct size relative to the weight of the left ventricule. Initially, the blood pressure decreased as a result of the coronary ligature, and this led to a reflectory increase in the heart rate.

[4] = tested on: leucocyte stickiness; assay: Stickiness of leucocytes in hamster cheek pouch; type: in vivo, Male Syrian golden hamsters; details: Effect after administration of 1 mg/kg i.a.
Description: The reduction in the leucocyte stickiness is also responsible for the decrease in ischaemic areas since, after treatment with the compounds to be used according to the invention, the leucocytes pass through the microcirculatory region of these areas without reducing the supply to the corresponding tissue by totally or temporarily closing small vessels or capillaries.
The number of leucocytes which pass through a certain section of a vessel serves as a simple model for measuring the stickiness of leucocytes (Bray, M. A. et al., Prostaglandins, 22, 213, 1981). The less sticky these cells are, the greater is the number of leucocytes counted.
Male Syrian golden hamsters (80-100 g) were anaesthetized with nembutal (i.p.; 60 mg/kg). After fixing a PE 10 catheter in the A.femoralis, the animal is laid on a Duling dissection stage (MVR 5, 423, 1973) and the right cheek pouch is drawn out by inserting a Q-tip. It is carefully drawn into that part of the stage which is intended for this purpose, and is stretched out and fixed. From the beginning of the preparation procedure, the prepared cheek pouch is rinsed over with 5 ml/minute of superfusate. The temperature of the solution is 36° C. While protecting the vessels, the upper layer of tissue is cut longitudinally and folded to the side. Under about 200 times magnification, an area of about 1 cm^2 of connective tissue is carefully exposed. The animal, together with the dissection stage, is placed on the microscope stage. A thermocouple is inserted into the left cheek pouch. The body temperature of the animal is monitored in this manner and maintained within +0.3° C. with the aid of an IR lamp (240 watt).
Measurement of the leucocyte stickiness is carried out under a magnification of about 500 times. A small vein (30-40 μm .phi.) is selected in the exposed area. Over a certain section of this vessel, the number of leucocytes passing by per unit time (min.) is counted.

[5] = target: T1, 5-lipoxygenase (Homo sapiens, UniProt P09917); assay: Inhibition of LTB4 synthesis in human PMN leucocytes (A 23 187 stimulated); type: cell-based; details: for inhibition at 0.1 µg/mL: 0.1 μg/ml; for inhibition at 0.5 µg/mL: 0.5 μg/ml; for inhibition at 1 µg/mL: 1 μg/ml; for inhibition at 5 µg/mL: 5 μg/ml
T1 construct: The human polymorphonuclear leucocytes metabolize the arachidonic acid to give 5-hydroxy-5,8,11,14-eicosatetraenoic acid (5-HETE) and leucotriene B4; endogenous in cells; host or cells: human PMN leucocytes from heparinized whole blood
T1 sequence (P09917 1-674): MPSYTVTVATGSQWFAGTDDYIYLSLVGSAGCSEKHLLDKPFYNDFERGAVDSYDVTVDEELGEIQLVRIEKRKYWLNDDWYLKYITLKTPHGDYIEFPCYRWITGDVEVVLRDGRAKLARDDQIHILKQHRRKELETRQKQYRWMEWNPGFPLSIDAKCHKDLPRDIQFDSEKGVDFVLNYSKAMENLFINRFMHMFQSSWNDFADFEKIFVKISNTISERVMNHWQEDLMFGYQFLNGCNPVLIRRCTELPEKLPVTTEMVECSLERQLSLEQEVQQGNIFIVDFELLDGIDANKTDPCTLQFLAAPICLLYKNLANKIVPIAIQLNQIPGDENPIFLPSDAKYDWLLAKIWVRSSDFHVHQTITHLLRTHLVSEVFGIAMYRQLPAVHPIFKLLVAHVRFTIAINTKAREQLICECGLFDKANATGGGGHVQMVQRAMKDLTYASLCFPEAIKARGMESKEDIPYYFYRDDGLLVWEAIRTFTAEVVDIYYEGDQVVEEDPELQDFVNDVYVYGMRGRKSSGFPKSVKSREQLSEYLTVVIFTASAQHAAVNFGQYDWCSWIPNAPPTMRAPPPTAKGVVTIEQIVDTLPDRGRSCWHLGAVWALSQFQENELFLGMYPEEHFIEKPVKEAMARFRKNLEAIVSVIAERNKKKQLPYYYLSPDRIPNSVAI
Method: The 5-lipoxygenase responsible for the biosynthesis of the leucotrienes B4, C4 and D4 is inhibited selectively at low concentrations. […] Inhibition of the liberation of 5-HETE and leucotriene B4 from the leucocytes constitutes a measure of the lipoxygenase-inhibiting effect of the compounds according to the invention (see Table 1). The test with the human leucocytes was carried out in accordance with Borgeat and Samuelsson (J. Biol. Chem. 254, 2643, 1979, and Proc. Natl. Acad. Sci. USA, 76, 2148, 1979). The human PMN leucocytes (>95%) used in the present example were obtained from heparinized whole blood by dextran sedimentation and subsequent density gradient separation (Ficoll-Paque) (see A. Boyum, Scand. J. Immunol., 5, Suppl. 5, 9, 1976). 2×10^7 cells/ml were suspended in Ca^2+ -containing Dulbecco phosphate buffer and stimulated in the presence and absence of lipoxygenase inhibitors, with the calcium ionophore A 23 187. After 15 minutes, the lipoxygenase products were extracted from the acidified incubation medium and separated by means of HPLC.

SMILES	toxic side effects [1]	cyclooxygenase inhibition [2]	haemodynamic effects ([3]; LAD ligature, intraduodenal)	infarct size ([3]; gradual LAD occlusion 6 hours, intraduodenal bolus one hour prior to ligature, absolute infarct weight and relative to left ventricle weight)	Inhibition of leucocyte stickiness [4]	inhibition at 0.1 µg/mL [5]	inhibition at 0.5 µg/mL [5]	inhibition at 1 µg/mL [5]	inhibition at 5 µg/mL [5]
NC1=NN(c2cccc(C(F)(F)F)c2)CC1 [3-amino-1-(3-trifluoromethylphenyl)-2-pyrazoline]	toxic side effects	act as cyclooxygenase inhibitors either simultaneously or only at very high concentrations							
C1=CSc2ccccc2N1 [4H-1,4-benzothiazine]			no haemodynamic effects	substantially reduced the infarct size					
CCCCCC=CCC=CCC=CCC=CCCCC(=O)O [5,8,11,14-eicosatetraenoic acid]		act as cyclooxygenase inhibitors either simultaneously or only at very high concentrations							
CC1=NN(CCOc2ccc3ccccc3c2)C(=O)C1=O [Example 1, 3-Methyl-1-[2-(2-naphthyloxy)-ethyl]-2-pyrazole-4,5-dione]					inhibition	29%	60%	85%	100%
CC(C)(C)C1=NN(CCOc2ccccc2)C(=O)C1=O [Example 2]					inhibition			12%	
COCC1=NN(C(C)c2ccc(Cl)c(Cl)c2)C(=O)C1=O (stereo not drawn) [Example 3]					no effect	6%	20%	37%	100%
COCC1=NN(CCOc2ccc3ccccc3c2)C(=O)C1=O [Example 4]					inhibition	15%	47%	60%	100%
CC1=NN(C(C)c2ccc(Cl)c(Cl)c2)C(=O)C1=O (stereo not drawn) [Example 5]					no action		12%	29%	84%
CC1=NN(CCOc2ccccc2)C(=O)C1=O [Example 6]					no effect	38%	60%	88%	100%
CC1=NN(C(C)c2ccc3c(c2)CCCC3)C(=O)C1=O (stereo not drawn) [Example 7]					inhibition		10%	21%	100%
O=C1C(=O)N(CCOc2ccc3ccccc3c2)N=C1CC1CCCCC1 [Example 8]					no action		10%	35%	100%
CC1=NN(C(C)c2cccc(C(F)(F)F)c2)C(=O)C1=O (stereo not drawn) [Example 9]					no effect			40%	73%
CCCC1=NN(CCOc2ccc3ccccc3c2)C(=O)C1=O [Example 10]					inhibition		12%	56%	100%
CC1=NN(C(C)C2CCCCC2)C(=O)C1=O (stereo not drawn) [Example 11]					inhibition			29%	32%
CC(Cc1ccc(O)c(O)c1)C(C)Cc1ccc(O)c(O)c1 (stereo not drawn) [nordihydroguaretic acid]		act as cyclooxygenase inhibitors either simultaneously or only at very high concentrations							
O=C1CCN(c2ccccc2)N1 [phenidone]		act as cyclooxygenase inhibitors either simultaneously or only at very high concentrations							
